# Several values for one entry are separate records, joined by “and”; a condition that tells them apart may be missing. Equal values may be shown once.
# Tested on: A498 complex spheroids with HUVEC/MSC, growth
# Experiment: Anticancer human tumor A498 cell line growth inhibition [AhR];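 further: seven day exposure starting three days after spheroid seeding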;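 on viability, T/C: luminescence signal used as a surrogate for viable cells; luminescence viability scaled so 100% equals DMSO vehicle wells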
# Settings: for viability, T/C: stronger effect = lower value
# Procedure, shortened: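 Spheroids combined tumor cells with HUVEC endothelial cells and human MSCs as stroma. AhR antagonists were paired with standard or investigational drugs, each dosed in half-log steps down from near clinical Cmax, or from 10 microM where Cmax was unknown.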
# [1] = curve of first compound, second compound 0.1 µM
# [2] = curve of first compound, second compound 0.316 µM
# [3] = curve of first compound, second compound 1 µM
# [4] = curve of first compound, second compound 3.16 µM
# [5] = curve of first compound, second compound 10 µM
# [6] = second compound 0.1 µM, first compound 0.0316 µM
# [7] = second compound 0.1 µM, first compound 0.1 µM
# [8] = second compound 0.1 µM, first compound 0.316 µM
# [9] = second compound 0.1 µM, first compound 1 µM
# [10] = second compound 0.1 µM, first compound 3.16 µM
# [11] = second compound 0.1 µM, first compound 10 µM
# [12] = second compound 0.316 µM, first compound 0.0316 µM
# [13] = second compound 0.316 µM, first compound 0.1 µM
# [14] = second compound 0.316 µM, first compound 0.316 µM
# [15] = second compound 0.316 µM, first compound 1 µM
# [16] = second compound 0.316 µM, first compound 3.16 µM
# [17] = second compound 0.316 µM, first compound 10 µM
# [18] = second compound 1 µM, first compound 0.0316 µM
# [19] = second compound 1 µM, first compound 0.1 µM
# [20] = second compound 1 µM, first compound 0.316 µM
# [21] = second compound 1 µM, first compound 1 µM
# [22] = second compound 1 µM, first compound 3.16 µM
# [23] = second compound 1 µM, first compound 10 µM
# [24] = second compound 3.16 µM, first compound 0.0316 µM
# [25] = second compound 3.16 µM, first compound 0.1 µM
# [26] = second compound 3.16 µM, first compound 0.316 µM
# [27] = second compound 3.16 µM, first compound 1 µM
# [28] = second compound 3.16 µM, first compound 3.16 µM
# [29] = second compound 3.16 µM, first compound 10 µM
# [30] = second compound 10 µM, first compound 0.0316 µM
# [31] = second compound 10 µM, first compound 0.1 µM
# [32] = second compound 10 µM, first compound 0.316 µM
# [33] = second compound 10 µM, first compound 1 µM
# [34] = second compound 10 µM, first compound 3.16 µM
# [35] = second compound 10 µM, first compound 10 µM
# [36] = second compound 0.1 µM, first compound 0.00949 µM
# [37] = second compound 0.1 µM, first compound 0.03 µM
# [38] = second compound 0.1 µM, first compound 0.0949 µM
# [39] = second compound 0.1 µM, first compound 0.3 µM
# [40] = second compound 0.316 µM, first compound 0.00949 µM
# [41] = second compound 0.316 µM, first compound 0.03 µM
# [42] = second compound 0.316 µM, first compound 0.0949 µM
# [43] = second compound 0.316 µM, first compound 0.3 µM
# [44] = second compound 1 µM, first compound 0.00949 µM
# [45] = second compound 1 µM, first compound 0.03 µM
# [46] = second compound 1 µM, first compound 0.0949 µM
# [47] = second compound 1 µM, first compound 0.3 µM
# [48] = second compound 3.16 µM, first compound 0.00949 µM
# [49] = second compound 3.16 µM, first compound 0.03 µM
# [50] = second compound 3.16 µM, first compound 0.0949 µM
# [51] = second compound 3.16 µM, first compound 0.3 µM
# [52] = second compound 10 µM, first compound 0.00949 µM
# [53] = second compound 10 µM, first compound 0.03 µM
# [54] = second compound 10 µM, first compound 0.0949 µM
# [55] = second compound 10 µM, first compound 0.3 µM
structure (smiles),measurement,setting,value
CC1COCCN1c1cc(C2(S(C)(=N)=O)CC2)nc(-c2ccnc3[nH]ccc23)n1 (centres undefined) + Cc1cncc(-c2nc(NCCc3c[nH]c4ccccc34)c3ncn(C(C)C)c3n2)c1,IC50,[1],3550 nM
same,IC50,[2],2690 nM
same,IC50,[3],2260 nM
same,IC50,[4],< 31.6 nM
same,IC50,[5],< 31.6 nM
same,"viability, T/C",[6],97.8%
same,"viability, T/C",[7],98.7%
same,"viability, T/C",[8],90.4%
same,"viability, T/C",[9],81.9%
same,"viability, T/C",[10],52.5%
same,"viability, T/C",[11],23.1%
same,"viability, T/C",[12],94.9%
same,"viability, T/C",[13],102%
same,"viability, T/C",[14],96.3%
same,"viability, T/C",[15],78.5%
same,"viability, T/C",[16],45.7%
same,"viability, T/C",[17],27.5%
same,"viability, T/C",[18],86.8%
same,"viability, T/C",[19],92%
same,"viability, T/C",[20],87.5%
same,"viability, T/C",[21],68.2%
same,"viability, T/C",[22],42.9%
same,"viability, T/C",[23],23.4%
same,"viability, T/C",[24],37.1%
same,"viability, T/C",[25],37.2%
same,"viability, T/C",[26],39.5%
same,"viability, T/C",[27],35.5%
same,"viability, T/C",[28],33.9%
same,"viability, T/C",[29],21.9%
same,"viability, T/C",[30],4.97%
same,"viability, T/C",[31],6.89%
same,"viability, T/C",[32],5.25%
same,"viability, T/C",[33],5.47%
same,"viability, T/C",[34],5.09%
same,"viability, T/C",[35],9.27%
O=C(c1cc(Cc2n[nH]c(=O)c3ccccc23)ccc1F)N1CCN(C(=O)C2CC2)CC1,"viability, T/C",compound 0.0316 µM,100% and 101% (2×)
same,"viability, T/C",compound 0.1 µM,103% and 100% and 104%
same,"viability, T/C",compound 0.316 µM,99.4% and 99.2% and 99.5%
same,"viability, T/C",compound 1 µM,108% and 99.4% and 100%
same,"viability, T/C",compound 3.16 µM,106% and 98.4% and 101%
same,"viability, T/C",compound 10 µM,94% and 92.4% and 92.1%
same,IC50,curve of compound,> 10000 nM
CCN(c1cc(-c2ccc(CN3CCOCC3)cc2)cc(C(=O)NCc2c(C)cc(C)[nH]c2=O)c1C)C1CCOCC1 + Cc1ccccc1N=Nc1ccc(NC(=O)c2ccnn2C)c(C)c1,IC50,[1],> 3000 nM
same,IC50,[2],> 3000 nM
same,IC50,[3],> 3000 nM
same,IC50,[4],> 3000 nM
same,IC50,[5],> 3000 nM
same,"viability, T/C",[36],92.6%
same,"viability, T/C",[37],96.8%
same,"viability, T/C",[38],94.3%
same,"viability, T/C",[39],89.7%
same,"viability, T/C","second compound 0.1 µM, first compound 0.949 µM",93.1%
same,"viability, T/C","second compound 0.1 µM, first compound 3 µM",98.4%
same,"viability, T/C",[40],95.4%
same,"viability, T/C",[41],98.9%
same,"viability, T/C",[42],98.2%
same,"viability, T/C",[43],96.8%
same,"viability, T/C","second compound 0.316 µM, first compound 0.949 µM",96.4%
same,"viability, T/C","second compound 0.316 µM, first compound 3 µM",104%
same,"viability, T/C",[44],91.3%
same,"viability, T/C",[45],92.9%
same,"viability, T/C",[46],90.8%
same,"viability, T/C",[47],91.2%
same,"viability, T/C","second compound 1 µM, first compound 0.949 µM",85.2%
same,"viability, T/C","second compound 1 µM, first compound 3 µM",91.6%
same,"viability, T/C",[48],86.7%
same,"viability, T/C",[49],92.6%
same,"viability, T/C",[50],91%
same,"viability, T/C",[51],89.2%
same,"viability, T/C","second compound 3.16 µM, first compound 0.949 µM",87.7%
same,"viability, T/C","second compound 3.16 µM, first compound 3 µM",86.3%
same,"viability, T/C",[52],95.6%
same,"viability, T/C",[53],91%
same,"viability, T/C",[54],95%
same,"viability, T/C",[55],89.5%
same,"viability, T/C","second compound 10 µM, first compound 0.949 µM",92.5%
same,"viability, T/C","second compound 10 µM, first compound 3 µM",96.3%
CC1COCCN1c1cc(C2(S(C)(=N)=O)CC2)nc(-c2ccnc3[nH]ccc23)n1 (centres undefined),"viability, T/C",compound 0.0316 µM,106% and 101% (2×)
same,"viability, T/C",compound 0.1 µM,111% and 103% and 107%
same,"viability, T/C",compound 0.316 µM,104% and 99.8% and 95.7%
same,"viability, T/C",compound 1 µM,92.2% and 72.5% and 72.7%
same,"viability, T/C",compound 3.16 µM,61% and 46.5% and 37%
same,"viability, T/C",compound 10 µM,29% and 24.8% and 19.5%
same,IC50,curve of compound,4680 nM and 2570 nM and 2070 nM
Nc1ccn(C2OC(CO)C(O)C2(F)F)c(=O)n1 (centres undefined) + CC(CO)NC(=O)c1cc(-c2ccc(Cl)cc2)nn(-c2cnn(C)c2)c1=O,IC50,[1],< 31.6 nM
same,IC50,[2],< 31.6 nM
same,IC50,[3],< 31.6 nM
same,IC50,[4],< 31.6 nM
same,IC50,[5],< 31.6 nM
same,"viability, T/C",[6],26.1%
same,"viability, T/C",[7],25.7%
same,"viability, T/C",[8],24.6%
same,"viability, T/C",[9],35.1%
same,"viability, T/C",[10],32.8%
same,"viability, T/C",[11],29.9%
same,"viability, T/C",[12],27.5%
same,"viability, T/C",[13],25.8%
same,"viability, T/C",[14],31%
same,"viability, T/C",[15],32.3%
same,"viability, T/C",[16],35%
same,"viability, T/C",[17],28.3%
same,"viability, T/C",[18],25.6%
same,"viability, T/C",[19],29.8%
same,"viability, T/C",[20],32.1%
same,"viability, T/C",[21],30.2%
same,"viability, T/C",[22],34.4%
same,"viability, T/C",[23],29.2%
same,"viability, T/C",[24],27.6%
same,"viability, T/C",[25],26.1%
same,"viability, T/C",[26],34.2%
same,"viability, T/C",[27],33.7%
same,"viability, T/C",[28],29.6%
same,"viability, T/C",[29],27.8%
same,"viability, T/C",[30],33.2%
same,"viability, T/C",[31],30.1%
same,"viability, T/C",[32],27%
same,"viability, T/C",[33],29.5%
same,"viability, T/C",[34],27.5%
same,"viability, T/C",[35],24.1%
CCc1c2c(nc3ccc(O)cc13)-c1cc3c(c(=O)n1C2)COC(=O)[C@]3(O)CC + Cc1cncc(-c2nc(NCCc3c[nH]c4ccccc34)c3ncn(C(C)C)c3n2)c1,IC50,[1],32.8 nM
same,IC50,[2],33.7 nM
same,IC50,[3],23.6 nM
same,IC50,[4],14 nM
same,IC50,[5],< 0.949 nM
same,"viability, T/C","second compound 0.1 µM, first compound 0.000949 µM",78.1%
same,"viability, T/C","second compound 0.1 µM, first compound 0.003 µM",81.4%
same,"viability, T/C",[36],70.2%
same,"viability, T/C",[37],51%
same,"viability, T/C",[38],39.1%
same,"viability, T/C",[39],35.3%
same,"viability, T/C","second compound 0.316 µM, first compound 0.000949 µM",85.7%
same,"viability, T/C","second compound 0.316 µM, first compound 0.003 µM",76%
same,"viability, T/C",[40],67.1%
same,"viability, T/C",[41],52.7%
same,"viability, T/C",[42],36.7%
same,"viability, T/C",[43],35.2%
same,"viability, T/C","second compound 1 µM, first compound 0.000949 µM",77.1%
same,"viability, T/C","second compound 1 µM, first compound 0.003 µM",72.8%
same,"viability, T/C",[44],66.8%
same,"viability, T/C",[45],45.4%
same,"viability, T/C",[46],32.4%
same,"viability, T/C",[47],29.1%
same,"viability, T/C","second compound 3.16 µM, first compound 0.000949 µM",50.7%
same,"viability, T/C","second compound 3.16 µM, first compound 0.003 µM",53.5%
same,"viability, T/C",[48],58.1%
same,"viability, T/C",[49],42%
same,"viability, T/C",[50],29.1%
same,"viability, T/C",[51],26.3%
same,"viability, T/C","second compound 10 µM, first compound 0.000949 µM",5.42%
same,"viability, T/C","second compound 10 µM, first compound 0.003 µM",4.3%
same,"viability, T/C",[52],6.41%
same,"viability, T/C",[53],7.12%
same,"viability, T/C",[54],5.73%
same,"viability, T/C",[55],4.65%

# Source: PubChem BioAssay AID1919007 (Molecular Pharmacology Branch, DTP, NCI, 2023)
